In the NIST ThermoML archive (doi:10.1016/j.jct.2014.03.005):
Several values for one entry are separate records, joined by “and”; a condition that tells them apart may be missing. Equal entries are not always repeated.

Tests used:
[1] = Crystal; for vapor or sublimation pressure: Calculated from knudsen effusion weight loss; for Normal melting temperature: DTA
[2] = Molar enthalpy of transition or fusion; conditions: Crystal; DSC
[3] = molar enthalpy of vaporization or sublimation; conditions: 298.15 K; Crystal; Static calorimetry

Nc1ccc2c(c1)Cc1ccccc1-2 [2-aminofluorene]
[1]
Conditions | vapor or sublimation pressure
345.16 K | 0.000121 kPa and 0.00012 kPa and 0.000118 kPa
347.13 K | 0.000155 kPa and 0.000154 kPa and 0.000148 kPa
349.17 K | 0.000189 kPa and 0.000182 kPa and 0.00019 kPa
351.15 K | 0.000238 kPa and 0.000226 kPa
353.1 K | 0.000286 kPa and 0.000283 kPa and 0.000291 kPa
355.17 K | 0.00035 kPa and 0.000348 kPa and 0.000362 kPa
357.13 K | 0.000447 kPa and 0.000436 kPa and 0.000432 kPa
359.16 K | 0.000546 kPa and 0.000522 kPa and 0.000551 kPa
361.13 K | 0.000675 kPa and 0.000647 kPa and 0.000664 kPa
363.1 K | 0.000811 kPa and 0.000789 kPa and 0.000805 kPa
365.09 K | 0.000994 kPa and 0.000997 kPa and 0.000981 kPa

Conditions | Molar enthalpy of transition or fusion [kcal/mol] | Normal melting temperature [°C] | molar enthalpy [kcal/mol]
[1] | – | 127.79 | –
[2] | 5.69 | – | –
[3] | – | – | 26.4

O=[N+]([O-])c1ccc2c(c1)Cc1ccccc1-2 [2-nitro-9H-fluorene]
[1]
Conditions | vapor or sublimation pressure
357.16 K | 9e-05 kPa and 9.2e-05 kPa
359.13 K | 0.000115 kPa and 0.000114 kPa and 0.000111 kPa
361.11 K | 0.000141 kPa and 0.000139 kPa and 0.00014 kPa
363.16 K | 0.000172 kPa and 0.00017 kPa
365.14 K | 0.000217 kPa and 0.000209 kPa and 0.000213 kPa
367.11 K | 0.000261 kPa and 0.000258 kPa
369.16 K | 0.000315 kPa and 0.000322 kPa
371.13 K | 0.000398 kPa and 0.000377 kPa and 0.000392 kPa
373.1 K | 0.000478 kPa and 0.000472 kPa and 0.000474 kPa
375.15 K | 0.000565 kPa and 0.000561 kPa and 0.000578 kPa
377.14 K | 0.000696 kPa and 0.000707 kPa and 0.000678 kPa
379.12 K | 0.000839 kPa and 0.000844 kPa and 0.000829 kPa

Conditions | Molar enthalpy of transition or fusion [kcal/mol] | Normal melting temperature [°C] | molar enthalpy [kcal/mol]
[1] | – | 156.74 | –
[2] | 5.92 | – | –
[3] | – | – | 27.3
